Laboratory results: patent publication US11834680B2, “Single kidney cell-derived organoids” (Rutgers, The State University of New Jersey, priority 2017, dated 2023)

Key:
[1] = test system: cultured nephron progenitor cells; assay: Effect of activating Wnt signaling on kidney organoid formation, shape and size; format: cell-based, human
Procedure: The organoids generated from multiple patient samples had various phenotypes during the different times of 2D culture. A similar diversity in phenotypes was also detected in the 3D culture stage. Moreover, the organoids formed in 3D culture had both spherical or branching shapes. When […] (1 μM) was added to the media as a pulse for 12 h then media was replaced with fresh media without CHIR, branching tubular shaped organoids increased. In another group of experiments, the effects of addition of 1× B27 supplement were examined.
The Wnt signaling pathway is known to trigger the initiation of nephron progenitor cell differentiation. The effects of activating Wnt signaling in organoid studies was examined. Cultured 2D and 3D cells were treated with a GSK3 inhibitor CHIR99021 (CHIR), which activates the canonical Wnt signaling pathway. […] On the other hand, branching tubular shaped organoids increased.

[2] = test system: Nephrectomy-derived normal adjacent tissue (NAT) and RCC cells; assay: Organoid forming efficiency (OFE) of kidney cells in 2D stage I / 3D Matrigel stage II culture; format: cell-based, human
Text: The human kidney contains up to 2 million epithelial nephrons responsible for blood filtration. Regenerating the kidney requires the induction of the more than 20 distinct cell types required for excretion and the regulation of pH, and electrolyte and fluid balance. Herein is described the induction of progenitors for both collecting duct and nephrons via the directed differentiation of patient-derived normal and RCC cells derived from nephrectomy tissues. Under an IRB-approved protocol, nephrectomy specimens from high-risk RCC cases were collected and processed within 15 minutes of surgery. Areas containing tumor as deemed by the pathologist and normal adjacent tissue counterpart were microdissected. A 3D culture system fit for growth of kidney cells was first developed by isolating epithelial cells microdissected from primary RCC specimens. Qualified pathologists confirmed their renal origin from the corresponding H&E. Nephrectomy-derived normal adjacent tissue (NAT) and RCC cells were utilized to determine best conditions for generating organoids. A two-step methodology comprising a first phase of adult kidney stem cell enrichment, conducted in a 2D setting (stage I), followed by a second phase of organoid 3D growth obtained in pure matrigel chambers (stage II), was conducted. […] Stage I media included using either EGM2 or ADMED complete medium (with the addition of EGF, BFGF, IGF-1, VEGF, hydrocortisone, ascorbic acid, insulin, heparin, gentamicin, amphotericin-B, and 2% FBS).
Cells were placed in 3D droplet culture chambers in stage II complete media containing Matrigel, to mimic the basal lamina of the normal renal tissue, and growth factors in conditions that permits cellular self-organization of organoid forming cells. Kidney cells were embedded as single cells in 3D-well plates. Organoid formation was then followed microscopically daily for 2 weeks.

[3] = cultured 2D and 3D cells treated

Compound: Cc1c[nH]c(-c2cnc(NCCNc3ccc(C#N)cn3)nc2-c2ccc(Cl)cc2Cl)n1 [CHIR99021]
- branching tubular shaped organoids ([1]; 1 μM added to the media as a pulse for 12 h, then fresh media): increased
- cell death [1, 3]: accompanied by cell death
- differentiation in cultured nephron progenitor cells [1, 3]: induced differentiation
- organoid size [1, 3]: smaller size organoids
- branching tubular shaped organoids ([1]; cultured 2D and 3D cells treated, concentration not given): increased

Compound: IGF-1: Insulin Growth Factor 1, culture medium supplement
- organoid forming efficiency (OFE) ([2]; addition to the culture media): improved
- organoid forming efficiency (OFE) ([2]; doubling the IGF-1 dose (2×) in culture): did not increase

Compound: Insulin: culture medium supplement
- organoid forming efficiency (OFE) ([2]; addition to the culture media): improved

Compound: VEGF
- organoid forming efficiency (OFE) ([2]; addition to the culture media): improved

Compound: heparin
- organoid forming efficiency (OFE) ([2]; addition to the culture media): improved
